Assay results as given in US20170131285A1, “METHODS AND COMPOSITIONS FOR DIAGNOSING, MONITORING AND TREATING CANCER” (INSERM (Institut National de la Sante et de la Recherche …, priority 2014, published 2017).
Where no end group is shown, it is not given here.

How the values were obtained:
HSP70/TLR2 association = biological target: T1, HSP70/TLR2 association (Homo sapiens, UniProt P0DMV8); test: In vitro co-immunoprecipitation of TLR2 followed by HSP70 immunoblotting; type: binding; details: A8 from 0.3 μM to 1.8 μM, HSP70 immunoblot
T1 construct: HA; made in house; host or cells: cell-free: TNT Quick Coupled Transcription/Translation System (Promega)
T1 sequence (P0DMV8 whole entry): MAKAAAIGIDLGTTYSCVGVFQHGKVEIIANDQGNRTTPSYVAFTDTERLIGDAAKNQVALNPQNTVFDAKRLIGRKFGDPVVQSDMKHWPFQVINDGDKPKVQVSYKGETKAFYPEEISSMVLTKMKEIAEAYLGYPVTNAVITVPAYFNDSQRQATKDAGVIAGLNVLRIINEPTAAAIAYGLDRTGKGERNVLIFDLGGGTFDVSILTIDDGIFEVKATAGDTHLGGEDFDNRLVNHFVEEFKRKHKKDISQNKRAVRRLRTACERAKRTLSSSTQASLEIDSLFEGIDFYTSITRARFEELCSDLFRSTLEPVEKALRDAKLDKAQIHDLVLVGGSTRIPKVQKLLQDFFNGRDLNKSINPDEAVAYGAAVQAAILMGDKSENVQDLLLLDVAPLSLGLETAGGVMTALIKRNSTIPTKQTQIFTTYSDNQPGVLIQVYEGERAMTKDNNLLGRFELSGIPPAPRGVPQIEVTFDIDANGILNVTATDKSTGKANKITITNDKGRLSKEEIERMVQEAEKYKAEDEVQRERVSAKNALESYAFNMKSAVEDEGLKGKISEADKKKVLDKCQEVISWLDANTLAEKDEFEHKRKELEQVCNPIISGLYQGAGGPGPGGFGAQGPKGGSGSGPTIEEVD
Procedure: (§1) FIG. 3: A8 blocks HSP70/TLR2 association. (A) Immunoprecipitation of TLR2 in the presence of increasing concentrations of A8 (from 0.3 μM to 1.8 μM) was followed by HSP70 immunoblotting. IP control, no relevant IgG antibody. (B) Denatured luciferase (D) was incubated in the absence or presence of human HSP70 and, when indicated, increasing concentrations of A8 (C1=5 μM; C2=15 μM; C3=25 μM and C4=50 μM) for 1 hour at 25° C. Following incubation, the luciferase substrate D-luciferin was added and within 10 minutes the total light units emitted were collected for 10 seconds at 560 nm using a Wallac (Victor 3) spectrophotometer. *, p<0.05. (C) Biolayer interferometry to determine association and dissociation curves of HSP70 (concentration range from 2.5 μM to 156 nM) with biotinylated TRL2 immobilized on streptavidin sensor tips. (D) Association and dissociation curves of HSP70 (concentration range from 50 nM to 1.28 nM) with biotinylated A8 immobilized on streptavidin sensor tips. Curves in C and D represent mean values of triplicate measurements for each concentration.
For the in vitro coimmunoprecipitation, we used A8 or TLR2 recombinants proteins. […] The immunoprecipitated proteins were analysed by western blot.
For the in vitro co-immunoprecipitation, we used A8 or TLR2 recombinants proteins. […] The immunoprecipitated proteins were analyzed by western blot.

human HSP70/HSP40 = biological target: T2, human HSP70/HSP40 (Homo sapiens, UniProt P0DMV8); test: Refolding luciferase assay (HSP70 chaperone activity); type: biochemical; details: A8 5 μM to 50 μM, 1 hour at 25° C., purified recombinant proteins
T2 construct: purchased StressGen (EnzoLife)
T2 sequence (P0DMV8 whole entry): as above
Procedure: as §1, with “concentration. […]” for “concentration.”

EL4 tumors = test: EL4 lymphoma tumor model in C57BL6 mice; type: in vivo, mouse
Procedure: FIG. 10: A8 anti-tumor effect in mice is associated with an increased anti-tumor immune response. Mice were s.c. injected with EL4 cells (7·10^5). On day 5, animals were treated every two days until the end of the experiment with either A0 (control aptamer) or A8 (3 mg/kg, i.p. injection). On day 6, half the animals were i.p. treated with a single dose of 5-fluorouracil (5FU, 25 mg/kg). A) At day 10, the percentage of MDSC (Gr1^+ CD11b^+) cells in the spleen collected from the different groups of mice was analyzed by flow cytometry (6 animals per group). As a negative control (Ctl) we used animals with no tumors. B) Tumor size was measured every two days (6 animals per group; n=3). The open symbols represent animals treated with 5FU. T test: *, p<0.05, **, p<0.01, (n=3). C) EL4 tumor sections were performed 10 days after injection of A8. Dendritic cells and macrophages were labeled using, CD11c and F4/80 antibodies. A representative image is shown (n=6 per group). Labeled cells were counted from 300 cells chosen randomly in different microscopic fields.
Animals were killed 15 or 18 days after cell injection. The site of tumor cell injection was resected and snap-frozen in liquid nitrogen. An immunohistochemical study of tumor-infiltrating inflammatory cells was performed on acetone-fixed 5 μm cryostat sections. Tumoral biopsies were blocked in PBS with 3% of BSA (10 min, RT) anti-CD11c (1/50, monoclonal, BD Pharmingen), anti-CD3 (1/50, monoclonal, BD Pharmingen), anti-F4/80 (1/100, monoclonal, BD Pharmingen), diluted in PBS with 1% of BSA, was added on slides and incubated 45 minutes at RT, after washing with PBS. Nuclei were colored with mounting medium: Prolong Gold with Dapi (Molecular Probe). […] Images were acquired using an AxioCam MRm monochrome CCD camera (Carl Zeiss GmbH). Six pictures were taken in random fields for each labeling, and analyzed using image J software.
To confirm A8 in vivo results shown in FIG. 5, the inventors have used another syngeneic model: lymphoma EL4 tumors developed in C57BL6 mice. […]

Sequence: SPWPRPTY [Aptamer A8, SPWPRPTY]
- HSP70 association to TLR2 (HSP70/TLR2 association): inhibited by A8 in a dose-dependent manner
- HSP70 chaperone activity (luciferase refolding) (human HSP70/HSP40): blocked, in a dose-dependent manner
- tumor infiltration by immune cells (EL4 tumors): strongly infiltrated by different immune cells
- number of MDSC in the spleen (EL4 tumors; A8 3 mg/kg i.p. every two days, day 10): a decrease in the number of MDSC in the spleen
- size of the tumors (EL4 tumors; A8 3 mg/kg i.p., with or without single dose 5FU 25 mg/kg i.p.): a decrease in the size of the tumors mainly when added in combination to 5FU
